Reference: paper PMC3128435 (Journal of physics. Condensed matter : an Institute of …, 2010)

Target: maltoporin (Escherichia coli, UniProt P02943)
Assay: single-channel current blockage in planar lipid bilayer
Assay type: binding
Details: 1.0 M NaCl, pH 7, 150 mV, 23 °C

maltoporin, sequence (P02943 26-446): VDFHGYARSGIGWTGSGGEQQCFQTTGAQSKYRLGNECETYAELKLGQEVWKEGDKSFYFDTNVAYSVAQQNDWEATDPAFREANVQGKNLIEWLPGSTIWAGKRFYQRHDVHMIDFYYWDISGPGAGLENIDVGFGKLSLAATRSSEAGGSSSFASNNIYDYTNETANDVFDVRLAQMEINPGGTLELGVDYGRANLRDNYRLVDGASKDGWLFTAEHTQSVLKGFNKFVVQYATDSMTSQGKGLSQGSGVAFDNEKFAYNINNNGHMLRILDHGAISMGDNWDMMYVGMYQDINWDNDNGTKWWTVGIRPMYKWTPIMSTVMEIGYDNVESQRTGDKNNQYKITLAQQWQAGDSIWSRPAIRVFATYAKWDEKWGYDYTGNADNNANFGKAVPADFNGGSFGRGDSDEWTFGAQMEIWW

Row | Compound | average lifetime of the channel complex (cis-side addition) [ms] | average lifetime of the channel complex [ms]
1 | OC[C@H]1O[C@@H]2O[C@H]3[C@H](O)[C@@H](O)[C@@H](O[C@H]4[C@H](O)[C@@H](O)[C@@H](O[C@H]5[C@H](O)[C@@H](O)[C@@H](O[C@H]6[C@H](O)[C@@H](O)[C@@H](O[C@H]7[C@H](O)[C@@H](O)[C@@H](O[C@H]8[C@H](O)[C@@H](O)[C@@H](O[C@H]1[C@H](O)[C@H]2O)O[C@@H]8CO)O[C@@H]7CO)O[C@@H]6CO)O[C@@H]5CO)O[C@@H]4CO)O[C@@H]3CO [CD, β-cyclodextrin] | 7.3 ± 0.5 | 
2 | OC[C@H]1O[C@H](O[C@H]2[C@H](O)[C@@H](O)[C@@H](O[C@H]3[C@H](O)[C@@H](O)[C@@H](O[C@H]4[C@H](O)[C@@H](O)[C@@H](O[C@H]5[C@H](O)[C@@H](O)[C@@H](O[C@H]6[C@H](O)[C@@H](O)[C@@H](O[C@H]7[C@H](O)[C@@H](O)C(O)O[C@@H]7CO)O[C@@H]6CO)O[C@@H]5CO)O[C@@H]4CO)O[C@@H]3CO)O[C@@H]2CO)[C@H](O)[C@@H](O)[C@@H]1O (some centres unmarked) [m7, maltoheptaose] |  | 2.0 ± 0.3
